Source: patent US20060293216A1, “Pharmaceutical compositions comprising an active agent and chitosan for sustained drug release or mucoadhesion” (ADVANCED BIOPOLYMERS AS, priority 2003, published 2006)
Each block holds one molecule with its values, some of them ahead of it.

Assays:
Assay type in all cases: physicochemical
[1] = Release of acetylsalicylic acid from chitosan (dialysis, UV); settings: acetylsalicylic acid 100 mg, chitosan 250 mg, against tris buffer pH7
Protocol: Acetylsalicylic acid (100 mg) and chitosan (various degrees of acetylation) (250 mg) were added to a diluted aqueous HCl solution at pH 2 (10 ml). The mixture was stirred for 30 minutes at 80° C., cooled to room temperature, transferred to a dialysis tube (cut off 12-14 kDa) and dialysed against tris buffer pH7 (100 ml). The amount of acetylsalicylic acid in the dialysate was determined by UV.
(§1) An experiment without chitosan was performed as a comparison.
The amounts of acetylsalicylic acid in dialysate are shown in Table 1 as a percentage of maximum detected amounts.

[2] = Release of warfarin from warfarin/chitosan (dialysis, UV 293 nm); settings: buffered solution pH 7.4
Protocol: The salt of warfarin/chitosan (from Example 7 above) (1.09 g) was suspended in a buffered solution with pH 7.4 (10 ml). The suspension was transferred into the dialysis tube (cut off 12-14 kDa) before the tube was transferred into a buffered solution of pH 7.4 (100 ml) under continuous stirring. 2 ml samples of the dialysate were taken at different times and the UV-absorbances measured with an UV-apparatus at 293 nm. As a control experiment, warfarin (0.38 g, 1.2 mmol) was dissolved in a buffered solution of pH 7.4 (10 ml) and transferred into the dialysis tube (cut off 12-14 kDa). 2 ml samples of the dialysate were taken at different times and the UV-absorbances measured with an UV-apparatus at 293 nm. The amounts of warfarin in dialysate are shown in Table 3 as a percentage of maximum detected amounts.

[3] = Effect of chitosan on availability of norfloxacin (dialysis, UV); settings: norfloxacin 100 mg, against tris buffer pH 7
Protocol: Norfloxacin (100 mg) and chitosan (FA=0.35, η=1250) (250 mg) were added to a diluted aqueous HCl solution pH 2 (10 ml). The mixture was stirred for 2 hours at 80° C., cooled to room temperature and dialysed against tris buffer pH 7 (100 ml). The amount of norfloxacin in dialysate was determined by UV.
as §1
The amounts of norfloxacin in dialysate are shown as a percentage of maximum detected amounts.

[4] = Release of paracetamol through a dialysis membrane with and without chitosan; settings: 10 mM paracetamol in 154 mM NaCl, pH 4.5; 3 (w/v)% chitosan (FA 0.41, hydrochloride salt); followed for 2 days; FIG. 1
Protocol: The chitosan used in this Example was prepared from a chitosan produced as described in WO 03/011912 (FA 0.41, [η]=1060 ml/g), which was depolymerized and at the same time converted to the chitosan hydrochloride salt using 3M ethanolic HCl. Excess ethanolic chitosan was removed, the chitosan washed with excess 70% ethanol, 96% ethanol and finally dried to obtain the chitosan hydrochloride salt. The intrinsic viscosity was determined to 200 ml/g, corresponding to a number-average molecular weight of 40 000 (Anthonsen et al., 1993, Carbohydr. Polym. (1993) 22 193-201). 10 mM Paracetamol was dissolved in 154 mM NaCl at pH 4.5. Each of the solutions containing salicylate or paracetamol was added to a small glass vial (10 ml) equipped with a dialysis membrane (d=14.3 mm, cut off 10-12 kDa). The glass vials were placed in a 1 litre reservoir containing 154 mM NaCl, pH 4.5. Samples of 3.0 ml were regularly withdrawn from the reservoir and the absorbance was measured at 297.0 nm (salicylic acid) and 243.3 nm (paracetamol). Each experiment was run with 6 parallels. The same experiment was performed with paracetamol and the salicylate solutions to which had been added 3 (w/v)% of the chitosan. […] No difference in the release profile of the neutral drug paracetamol with and without chitosan could be detected.

[5] = Release of salicylate through a dialysis membrane with and without chitosan; settings: 30 mM salicylate in 154 mM NaCl, pH 4.5; 3 (w/v)% chitosan (FA 0.41, hydrochloride salt); FIG. 2
Protocol: The chitosan used in this Example was prepared from a chitosan produced as described in WO 03/011912 (FA 0.41, [η]=1060 ml/g), which was depolymerized and at the same time converted to the chitosan hydrochloride salt using 3M ethanolic HCl. Excess ethanolic chitosan was removed, the chitosan washed with excess 70% ethanol, 96% ethanol and finally dried to obtain the chitosan hydrochloride salt. The intrinsic viscosity was determined to 200 ml/g, corresponding to a number-average molecular weight of 40 000 (Anthonsen et al., 1993, Carbohydr. Polym. (1993) 22 193-201). 30 mM Salicylic acid was dissolved in distilled water upon addition of equimolar amounts of sodium hydroxide, and sodium chloride was added to a final concentration of 154 mM. The pH was adjusted to 4.5. Each of the solutions containing salicylate or paracetamol was added to a small glass vial (10 ml) equipped with a dialysis membrane (d=14.3 mm, cut off 10-12 kDa). The glass vials were placed in a 1 litre reservoir containing 154 mM NaCl, pH 4.5. Samples of 3.0 ml were regularly withdrawn from the reservoir and the absorbance was measured at 297.0 nm (salicylic acid) and 243.3 nm (paracetamol). Each experiment was run with 6 parallels. The same experiment was performed with paracetamol and the salicylate solutions to which had been added 3 (w/v)% of the chitosan. […]

Structure (SMILES): CC(=O)Oc1ccccc1C(=O)O [No chitosan, Acetylsalicylic acid]
amount of acetylsalicylic acid in dialysate ([1]; time for dialysis 0.25 hours): 52 percentage of maximum detected amounts
amount of acetylsalicylic acid in dialysate ([1]; time for dialysis 0.5 hours): 87 percentage of maximum detected amounts
amount of acetylsalicylic acid in dialysate ([1]; time for dialysis 1 hour): 97 percentage of maximum detected amounts
amount of acetylsalicylic acid in dialysate ([1]; time for dialysis 2 hours): 98 percentage of maximum detected amounts
amount of acetylsalicylic acid in dialysate ([1]; time for dialysis 19 hours): 99 percentage of maximum detected amounts

Structure (SMILES): CC(=O)CC(c1ccccc1)c1c(O)c2ccccc2oc1=O (stereo not shown) [Warfarin]
amount of warfarin in dialysate ([2]; time 2½ hours): 49.8 percentage of maximum detected amounts
amount of warfarin in dialysate ([2]; time 4 hours): 49.0 percentage of maximum detected amounts
amount of warfarin in dialysate ([2]; time 20 hours): 100 percentage of maximum detected amounts
amount of warfarin in dialysate ([2]; time ½ hours): 14.8 percentage of maximum detected amounts

Structure (SMILES): CCn1cc(C(=O)O)c(=O)c2cc(F)c(N3CCNCC3)cc21 [Without chitosan, Norfloxacin]
amount of norfloxacin in dialysate ([3]; time for dialysis 0.25 hours): 66 percentage of maximum detected amounts
amount of norfloxacin in dialysate ([3]; time for dialysis 0.5 hours): 72 percentage of maximum detected amounts
amount of norfloxacin in dialysate ([3]; time for dialysis 1 hour): 100 percentage of maximum detected amounts
amount of norfloxacin in dialysate ([3]; time for dialysis 2 hours): 100 percentage of maximum detected amounts
amount of norfloxacin in dialysate ([3]; time for dialysis 4 hours): 100 percentage of maximum detected amounts

release profile of paracetamol with and without chitosan [4]: No difference
Structure (SMILES): CC(=O)Nc1ccc(O)cc1 [paracetamol, Paracetamol]

release of salicylate with and without chitosan [5]: clear difference
Structure (SMILES): O=C(O)c1ccccc1O [salicylate, Salicylic acid]
